{"source": "patent US10966940B2", "about": "“Methods for the treatment of tinnitus induced by cochlear excitotoxicity” (INSTITUT NATIONAL DE LA SANTE ET DE LA RECHERCHE MEDICALE …, priority 2004, dated 2021)", "key": {"Long-Evans rats": {"test_system": "Long-Evans rats", "experiment": "Behavioral (active avoidance) model of tinnitus induced by cochlear excitotoxicity provoked by acute acoustic trauma", "type": "in vivo, rat", "method": "We developed and tested an animal model of tinnitus induced by cochlear excitotoxicity, which was provoked by acoustic trauma. […] These considerations mean for example that more animals are required to obtain a sufficient number of tinnitus cases for study and to permit observation of tinnitus over time. As it is unclear whether a case of tinnitus induced by cochlear excitotoxicity is to last or not, it is advisable to conduct studies in its early stages.\nThe experiments were performed in two stages. First, the hearing loss following acute acoustic trauma as well as the incidence of tinnitus were evaluated with no therapeutic compound administered.\nDuring experiments, animals were caged individually at a constant temperature with a day/night cycle of 12/12 hours. All behavioral tests were performed in the dark phase, the usual period of animal activity, for every animal individually at about the same time each day. Outside the experiments, the animals received water and nutrition ad libidum. A total of 60 animals were used: 30 for the first stage (of which 25 were tested by behavioral techniques and 5 by electrophysiology), and 30 for the second stage with 10 for each pharmaceutical compound tested.\nAcoustic trauma was induced by a continuous pure tone of 6 kHz generated by a waveform synthesizer (Hewlett-Packard 8904A). The animals were anesthetized and exposed to 130 dB sound pressure level (SPL) for 20 minutes, which was routed through a programmable attenuator and presented to the ears in free field via a JBL 075 earphone positioned 10 cm in front of the animal's head. Sound level was measured using a calibrated Bruel and Kjaer microphone (4314) and a Bruel and Kjaer calibrating amplifier (2606).\nBehavioral conditioning and testing Animals were conditioned to achieve active avoidance (Guitton et al., J. of Neuroscience 23 (9): 3944-3952 (2003)). Behavioral testing consisted of the performance of a task whenever a sound was produced in a conditioning box with an electrical floor and a climbing pole. […] The unconditional stimulus consisted of an electric shock to the feet of the animals (3.7 mA) during maximally 30 seconds. Interstimulus intervals were 1 second. The electric shocks were stopped by the investigator once the animal correctly climbed onto the pole. Intervals between trials were at least one minute long.\nThe score was defined as the animal's performance, measured by the number of cases when it climbed correctly onto the pole in response to the sound. As soon as an animal had reached a score of at least 80% in three consecutive sessions, it was considered successfully conditioned and employed in the experiments.\nExperiments were conducted daily with measurements of both score and false positive responses during one session of 10 minutes with 10 trials in total. False positive responses were climbings onto the pole between trials without any acoustic stimulation, i.e. during periods of silence. They can be interpreted as the perception of tinnitus, as the animals are performing the task of climbing onto the pole as if they were hearing the stimulus (Guitton et al., J. of Neuroscience 23 (9): 3944-3952 (2003)). Sound stimuli were randomized, and electrical footshocks were only delivered if the animals didn't climb onto the pole in response to sound.\nAnimals were anaesthetized with a single-dose i.p. injection of 0.3 ml/kg of pentobarbital at 6% (Sanofi) and operated under aseptic conditions right after the first behavioral testing (day 0). The two bullae were opened through a posterior auricular surgical procedure (dorsal approach). After exposure of the two cochleas, gelfoam (Gelita tampon, B. Braun Medical AG) impregnated with 2.5 μl artificial perilymph containing the pharmaceutical compounds was placed on the each of the round windows of the two cochleas. The concentration of all three pharmaceutical compounds used was 50 μM."}, "guinea pigs [1]": {"test_system": "guinea pigs", "experiment": "ESA noise trauma model: ensemble spontaneous activity of the cochlear nerve", "type": "in vivo, guinea pig", "settings": "for regular ESA peak centered at 900 Hz to 1 kHz: treated ear; for ESA spectral peak centered at 200 to 250 Hz (tinnitus): 50 microM in 0.7% hyaluronic acid gel, round window", "method": "We developed therefore an animal model with guinea pigs that were exposed to intensive noise, producing acute acoustic trauma, and whose ESA was recorded to control for the absence or presence of tinnitus (“ESA noise trauma model”). The possibility to record tinnitus by electrophysiological tests provides an excellent tool for evaluating the therapeutic benefits of pharmaceutical compounds in suppressing tinnitus. The development of the ESA noise trauma model required extensive experimentation with different noise trauma protocols as well as the development and testing of specific measurement tools for extended observation periods in vivo.\nThe experiment was performed in two stages. First, guinea pigs were exposed to intense noise stimulation in order to provoke acute acoustic trauma (day 0). Auditory thresholds and ESA were determined and then followed further by repeated electrophysiological measurements. If persisting tinnitus could still be detected after at least 5 days, an NMDA receptor antagonists (ketamine or 7-CK) was applied in a hyaluronic acid formulation onto the round window membrane of the cochlea. […] After treatment with the NMDA receptor antagonists, electrophysiological measurements of hearing thresholds and ESA continued for at least 10 days. The primary endpoints of the study were to test whether the pharmacological treatment could suppress tinnitus even after its onset, and whether such treatment effect was persisting or not. As a control, contralateral ears were exposed to the same noise exposure and followed by electrophysiology.\nExperiments were performed on adult pigmented guinea pigs (250 to 300 grams at study begin). During experiments, animals were caged individually. Outside the experiments, the animals received water and nutrition ad libidum. […] In two contralateral left ears, tinnitus was observed, so that they could be used as a control group.\nAcoustic trauma was induced by a continuous pure tone of 6 kHz generated by a waveform synthesizer (Hewlett-Packard 8904A). […] Sound level was measured using a calibrated Bruel and Kjaer microphone (4314) and a Bruel and Kjaer calibrating amplifier (2606).\nA teflon-coated platinum electrode implanted onto the round window membranes of both cochleas (with reference electrodes placed in a neck muscle) measured the ESA and the compound action potential of the auditory nerve (CAP). […]\nThe ESA was recorded from the platinum wire placed in the round window niche. […]\nThe ESA was measured just before acute acoustic trauma and 20 minutes following noise exposure on day 0, and then repeatedly for at least 10 days as described above. […] Subsequently, ESA was measured again on the first day after treatment (T+1) as well as 10 days after treatment (T+10). […]"}, "[2]": {"test_system": "PCP binding site of the NMDA receptor", "settings": "higher affinity than (R)-ketamine; cited from earlier work"}, "guinea pigs [3]": {"test_system": "guinea pigs", "experiment": "CAP audiogram (hearing threshold) in ESA noise trauma model", "type": "in vivo, guinea pig", "settings": "local administration onto round window membrane", "method": "A teflon-coated platinum electrode implanted onto the round window membranes of both cochleas (with reference electrodes placed in a neck muscle) measured the ESA and the compound action potential of the auditory nerve (CAP). The surgery was performed using a posterior auricular surgical procedure (dorsal approach) prior to noise exposure. The reference electrode and the round window electrode were soldered to a plug fixed on the skull using dental cement (Unifast Trad, GC Corporation).\nThe CAP was measured concomitantly with ESA measurements using the same electrode. Tone bursts (with a duration of 9 ms and a rise/fall cycle of 1 ms, 10 per second) generated by an arbitrary function generator (LeCroy Corp., model 9100R) were applied to the animal's ear in free filed via a JBL 075 earphone. CAP audiograms were obtained by varying burst levels from 0 to 100 dB SPL in steps of 5 dB at the frequencies 2, 4, 6, 8, 10, 12, 16, 20, and 26 kHz. Auditory nerve responses were amplified (Tektronic TM 503; gain 2000), filtered (3.5 kHz low pass) and averaged on a PC (Dimension Pentium, Dell). CAP amplitudes were measured peak-to-peak between the first negative depression N1 and the subsequent positive wave P1. The CAP threshold was defined as the sound intensity (in dB SPL) needed to elicit a measurable response (greater than 5 μV). […]"}, "NMDA receptors": {"test_system": "NMDA receptors", "settings": "local administration; cited from earlier work"}, "[4]": {"test_system": "salicylate-induced tinnitus", "settings": "cited from earlier work; for number of false positives after delivery to the cochleas via the round window membrane: salicylate-treated animals; for false positive responses (jumps in absence of sound) induced by the substance: tinnitus induction"}, "tinnitus": {"test_system": "tinnitus", "settings": "systemic administration; cited from earlier work"}, "[5]": {"settings": "in vivo; cited from earlier work"}, "[6]": {"test_system": "NR1 subunit of the cochlear NMDA receptor", "settings": "350 mg/kg i.p. twice over 24 hours; sample after 24 hours", "quoted_text": "The salicylate dose used is known to induce tinnitus (Guitton et al., J. of Neuroscience 23 (9): 3944-3952 (2003)). Another group of 3 animals served as control and was injected i.p. with a NaCl 0.9% solution of the same volume as salicylate treated animals. Samples were obtained after 24 hours in the salicylate and control groups and 24 hours respectively 5 days post incident for the acoustic trauma group.\nTissues were harvested in cold PBS and homogenized in sample buffer, and the lysates were centrifuged to remove detergent-insoluble material and separated on a 10% SDS-PAGE in Tris/Tricine. After gel electrophoresis, proteins were transferred electrophoretically to nitrocellulose membranes (PVDF transfer membrane Hybond-P, Amersham Pharmacia Biotech, USA). Blots were first incubated with a primary anti-antibody against the NMDA NR1 receptor subunit (1/1000 dilution; rabbit polyclonal antibody, Chemicon international, USA), and with a primary antibody anti-actin (1/50000 dilution, mouse monoclonal anti-β-actin, Sigma, USA) overnight at 4° C. To verify that the molecular weight of the NR1 subunit is identical in both brain and cochlea, immunoblots from the brain of control animals were performed. […] Image scanning of Western blots was then performed for semi-quantification of expression levels of NR1 and actin proteins using Biorad Fluor-S software (Quantity one)."}, "[7]": {"test_system": "sensory outer hair cells (OHC) and inner hair cell (IHC) synaptic complex", "settings": "350 mg/kg i.p. twice a day for 2 days", "quoted_text": "After decapitation of the rats under deep anaesthesia (pentobarbital 50 mg/kg), the cochleas were removed from the temporal bone and perfused with a fixative solution of 2.5% glutaraldehyde in 0.1 M phosphate-buffered saline (PBS), pH 7.3. They were then processed either for scanning (SEM) or transmission electron (TEM) microscopy. For SEM, the otic capsule was dissected out and the stria vascularis, tectorial, and Reissner's membranes were removed. After rinsing in PBS (pH 7.3) the samples were dehydrated in a graded series of ethanol (30-100%), critical point-dried in CO2, coated with gold palladium, and examined using a Hitachi S4000 microscope. For TEM, the cochleas were postfixed in a 1% aqueous solution of osmium tetroxide for 2 hours, rinsed in phosphate buffer, dehydrated in a graded series of ethanol (30-100%), and embedded in Epon resin. Transverse ultrathin sections of the organ of Corti were taken from the apical half of the cochlea. The sections, mounted on formvar-coated or mesh grids, were stained with uranyl acetate, and lead citrate and examined using a Hitachi 7100 microscope."}}}
{"smiles": "CN[C@@]1(c2ccccc2Cl)CCCCC1=O", "note": "(stereo in doubt) [S-(+)-Ketamine, 2-(2-chlorophenyl)-2-(methylamino)-cyclohexanone]", "values": [{"measurement": "number of false positives", "setting": "Long-Evans rats; group 1 (no increase), days 0 and 1", "value": "0.22±0.22", "unit": "false positives"}, {"measurement": "number of false positives", "setting": "Long-Evans rats; group 2 (reversible increase), day 0", "value": "0.2±0.2", "unit": "false positives"}, {"measurement": "number of false positives", "setting": "Long-Evans rats; group 2 (reversible increase), day 1", "value": "5±0.48", "unit": "false positives"}, {"measurement": "recovery of behavioral score after trauma, in words", "setting": "Long-Evans rats; local administration to round window membrane, 50 μM", "value": "improvement was slower than in untreated animals"}, {"measurement": "effect on tinnitus (false positives), in words", "setting": "Long-Evans rats; local administration to round window membrane, 50 μM, before acoustic trauma", "value": "only cases of transient tinnitus could be observed"}, {"measurement": "number of animals with no increase in false positives (group 1)", "setting": "Long-Evans rats; of 10 animals per compound", "value": 5}, {"measurement": "number of animals with only reversible increase in false positives (group 2, transient tinnitus)", "setting": "Long-Evans rats; of 10 animals per compound", "value": 5}, {"measurement": "average score at stabilization", "setting": "Long-Evans rats; rat, in vivo", "value": "89%±2.3"}, {"measurement": "regular ESA peak centered at 900 Hz to 1 kHz", "setting": "guinea pigs [1]; 10 days after treatment (T+10)", "value": "fully recovered"}, {"measurement": "regular ESA peak centered at 900 Hz to 1 kHz", "setting": "guinea pigs [1]; day T1 after treatment", "value": "still appeared, yet diminished"}, {"measurement": "ESA spectral peak centered at 200 to 250 Hz (tinnitus)", "setting": "guinea pigs [1]; day T1 after treatment, given after onset of persisting tinnitus", "value": "completely disappeared"}, {"measurement": "ESA spectral peak centered at 200 to 250 Hz (tinnitus)", "setting": "guinea pigs [1]; day T10 after treatment", "value": "remained absent"}, {"measurement": "affinity relative to (R)-ketamine", "setting": "[2]", "value": "3-4 fold"}, {"measurement": "permanent threshold shift (PTS, hearing loss) after treatment", "setting": "guinea pigs [3]", "value": "not changed"}]}
{"smiles": "N[C@H](CCCP(=O)(O)O)C(=O)O", "note": "[D-AP5, D-2-amino-5-phosphonopentanoic acid]", "values": [{"measurement": "functional recovery and regrowth of auditory dendrites", "setting": "NMDA receptors", "value": "delayed the functional recovery and the regrowth of auditory dendrites"}]}
{"smiles": "C[C@]12N[C@H](Cc3ccccc31)c1ccccc12", "note": "[MK-801, dizocilpine]", "values": [{"measurement": "number of false positives after delivery to the cochleas via the round window membrane", "setting": "[4]", "value": "decreased significantly"}]}
{"smiles": "C1C2CC3CC1CC(C2)C3", "note": "[adamantane]", "values": [{"measurement": "tinnitus during treatment", "setting": "tinnitus", "value": "reduction in tinnitus during treatment"}]}
{"smiles": "CCN(CC)CCn1c(=O)c(Cc2ccc(OC)cc2)nc2ccccc21", "note": "[caroverine]", "values": [{"measurement": "intracochlear concentration, local versus systemic administration", "setting": "[5]", "value": "higher intracochlear concentrations"}]}
{"smiles": "CC1CCCCC1(c1cccs1)N1CCCCC1", "note": "(stereo not drawn) [gacyclidine]", "values": [{"measurement": "number of false positives after delivery to the cochleas via the round window membrane", "setting": "[4]", "value": "decreased significantly"}]}
{"smiles": "Cc1cccc(Nc2ccccc2C(=O)O)c1C", "note": "[mefenamate]", "values": [{"measurement": "false positive responses (jumps in absence of sound) induced by the substance", "setting": "[4]", "value": "increased the number of false positive responses"}]}
{"smiles": "O=C([O-])c1ccccc1O.[Na+]", "note": "[salicylate, sodium salicylate]", "values": [{"measurement": "false positive responses (jumps in absence of sound) induced by the substance", "setting": "[4]", "value": "significant increase"}, {"measurement": "NR1 NMDA receptor subunit expression, higher than control animals", "setting": "[6]", "value": 4, "unit": "%"}, {"measurement": "stereocilia of OHC and IHC", "setting": "[7]; SEM", "value": "intact"}, {"measurement": "ultrastructure of the IHC synaptic complex", "setting": "[7]; TEM", "value": "No ultrastructural abnormalities"}]}
